How the values were obtained:
[1] = tested on: eJSmcp1[pJStari1, pJSxcmcp1]; assay: Swarming of eJSmcp1[pJStari1, pJSxcmcp1] grown with methyl-D-aspartate; assay type: cell-based, E. coli; settings: grown in the presence vs absence of methyl-D-aspartate; Tar-expressing transformed strain
Description: (§1) eJSmcp1[pJStari1, pJSxcmcp1] is grown in the absence and in the presence of methyl-D-aspartate.

[2] = tested on: wild type aspartate responsive control cells; assay: Swarming of wild type control cells grown with methyl-D-aspartate; assay type: cell-based, E. coli; settings: grown in the presence vs absence of methyl-D-aspartate
Description: as §1

## methyl-D-aspartate
[1]
  Swarming: Swarming is seen in the presence of the aspartate but not in its absence
[2]
  Swarming: same results are seen
